Results as given in US12459951B2, “Compounds that interact with RAS superfamily proteins for treatment of cancers, inflammatory diseases, rasopathies, and fibrotic disease” (SHY Therapeutics, LLC, priority 2022, dated 2025).
Structures can show the parent of a compound that is named as a salt.

Tests used:
[1] = tested on: KRas G12C mutant; assay: Ras GTP Binding Domain Inhibition Assay (Ras Superfamily Assay); details: 20 μM compound; for KRas G12C mutant + SOS: % inh.: with SOS; for KRas G12C mutant: % inh.: without SOS
In short: (§1)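 Ni-plate capture of His-tagged protein (10-30 μg/mL, o/n 4° C); cpd 20 μM or dilution series, 1% DMSO, 3 h RT ± Sos 556-1049 last h; 100 nM Cy-labelled GTP 45 min RT; 3× wash; fluorescence read.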

[2] = tested on: KRas Q61H mutant; assay: as above; details: 20 μM compound; for KRas Q61H mutant + SOS: % inh.: with SOS; for KRas Q61H mutant: % inh.: without SOS
In short: as §1

[3] = target: T1, Rho-A (Homo sapiens, UniProt P61586); assay: as above; details: read-out: Rho-A: % inh..
T1 construct: made in house
T1 sequence (P61586 whole entry): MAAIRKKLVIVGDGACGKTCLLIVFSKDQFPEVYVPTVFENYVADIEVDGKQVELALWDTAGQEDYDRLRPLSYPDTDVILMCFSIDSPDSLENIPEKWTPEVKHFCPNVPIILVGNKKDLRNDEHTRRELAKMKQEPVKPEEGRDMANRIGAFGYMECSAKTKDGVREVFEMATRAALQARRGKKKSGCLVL
In short: as §1

[4] = tested on: JNK phosphorylation; assay: JNK Activation Assay (western blot), Panc-1; format: cell-based, human; details: at 10 μM, Panc-1 pancreatic cancer cell line; starred symbols = activation
In short: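 KRas G12C Panc-1 cells treated 6 h at 37 °C with compound at 10 μM (0.3% DMSO), or serial dilutions for IC50. In Method 1 cells were serum-starved overnight (0.5% FBS) then stimulated with 1.5 ng/ml EGF for 15 min; Method 2 used 10% FBS without stimulation. Phospho-JNK (Thr183/Tyr185) measured by western blot.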

Row | Compound | KRas G12C mutant + SOS: % inh. [1] | KRas G12C mutant: % inh. [1] | KRas Q61H mutant + SOS: % inh. [2] | KRas Q61H mutant: % inh. [2] | inhibition at 20 µM [3] [%] | % inh of JNK in Panc-1 [4]
1 | COCC1CCN(c2nc(-c3nccn3C)nn3cc(-c4ccn(C(C)C)n4)c(C)c23)C1 (racemic) [Compound 2, rac 6-(1-Isopropyl-1H-pyrazol-3-yl)-4-(3-(methoxymethyl)pyrrolidin-1-yl)-5-methyl-2-(1-methyl-1H-imidazol-2-yl)pyrrolo[2,1-f][1,2,4]triazine] | 0 (0 = 0% inhibition) | 0 (0 = 0% inhibition) | 0 (0 = 0% inhibition) | 0 (0 = 0% inhibition) | 0 | F* (F* = 31-74% activation)
2 | CO[C@H]1CC[C@@H](Nc2nc(-c3nccn3C)nn3cc(-c4ccn(C(C)C)n4)c(-c4ccccc4)c23)C1 (racemic) [Compound 18, rac 6-(1-Isopropyl-1H-pyrazol-3-yl)-N-((1R,3S)-3-methoxycyclopentyl)-2-(1-methyl-1H-imidazol-2-yl)-5-phenylpyrrolo[2,1-f][1,2,4]triazin-4-amine hydrochloride] | 0 (0 = 0% inhibition) | 0 (0 = 0% inhibition) | A (A = 1-25% inhibition) | 0 (0 = 0% inhibition) | 1 to 25 | F* (F* = 31-74% activation)
3 | COc1cccc(-c2cn3nc(-c4nccn4C)nc(N[C@@H]4CC[C@@H](OC)C4)c3c2-c2ccccc2)c1Cl.Cl (racemic) [Compound 34, rac 6-(2-Chloro-3-methoxyphenyl)-N-((1R,3R)-3-methoxycyclopentyl)-2-(1-methyl-1H-imidazol-2-yl)-5-phenylpyrrolo[2,1-f][1,2,4]triazin-4-amine hydrochloride] | A (A = 1-25% inhibition) | 0 (0 = 0% inhibition) | 0 (0 = 0% inhibition) | 0 (0 = 0% inhibition) | 1 to 25 | H (H = 100% inhibition)
